The record followed here is article PMC9780942, “Antimicrobial Activity and Immunomodulatory Properties of Acidocin A, the Pediocin-like Bacteriocin with the Non-Canonical Structure” (Membranes, 2022).

In assay [1] the test system is P. aeruginosa MDR CI 1995. The assay is classed as cell-based. The conditions noted are these: MDR CI 1995, 24 h. Here is the method: (§1) Antibacterial activity of recombinant bacteriocins against a number of Gram-positive and Gram-negative bacteria (Table S2) was determined by the method of two-fold serial dilutions in a liquid medium. Two-fold serial dilutions of bacteriocins were prepared in sterile 96-well flat-bottom polystyrene microplates (Eppendorf, Hamburg, Germany) (Cat. No. 0030730.011) in a volume of 50 µL of sterile 0.1% bovine serum albumin (BSA) (SERVA Electrophoresis GmbH, Heidelberg, Germany) to prevent non-specific sorption of peptides to the surface of the plate wells [23]. Mid-log phase bacterial cultures were diluted with the 2x Mueller-Hinton broth (MHB) (Sigma-Aldrich, St. Louis, MO, USA) to a final cell concentration of 10^6 colony forming units (CFU) per mL. To determine the activity of bacteriocins against Listeria and Enterococci, 3% tryptic soy broth (TSB) (Merck-Millipore, Burlington, MA, USA) was used instead of MHB. Aliquots of 50 μL of diluted bacterial suspensions were added to each well of the plate, which was then incubated at 37 °C and 950 rpm for 24 h using thermostatable plate shaker PST-60HL-4 (Biosan, Riga, Latvia). As a negative control, 50 µL of the sterile growth medium (2xMHB or 6% TSB) was added to the wells containing 50 µL of 0.1% BSA. The values of the minimum inhibitory concentrations (MIC) were determined as the minimum concentration of the peptide, at which there was no visible growth of bacterial culture. Incubation for 2 h with 20 µg/mL chromogenic substrate resazurin (Sigma-Aldrich, St. Louis, MO, USA) was used to detect viable bacterial cells if they were difficult to visually detect. To study the effect of inorganic salts on the antimicrobial activity of bacteriocins, antibacterial activity assay was carried out in MHB medium supplemented with 0.9% NaCl.

A further assay deals with E. coli SQ110. It is filed as cell-based. The conditions noted are these: SQ110, 24 h. On the procedure: as §1
The subject of a further assay is L. lactis MK66. The assay is classed as cell-based. The conditions noted are these: MK66, 24 h. Here is the method:
as §1

The next assay has as its system M. luteus Ac-2229. The assay is classed as cell-based. The note with it: Ac-2229, 24 h. Here is the method:
as §1

A further assay has as its system E. coli XDR CI 1057. It is filed as cell-based. The conditions noted are these: XDR CI 1057, 24 h. On the procedure: as §1
For the next assay, the system named is B. licheniformis B-511. The assay is classed as cell-based. The conditions noted are these: 24 h. On the procedure: as §1
The next assay deals with S. aureus 209P. It is filed as cell-based. The conditions noted are these: 24 h. Here is the method: as §1
Another assay relates to M. phlei Ac-1221. It is filed as cell-based. The note with it: 24 h. Here is the method: as §1
For a further assay, the system named is B. subtilis B-886. It is filed as cell-based. The note with it: B-886, 24 h. On the procedure: as §1
Another assay concerns E. coli ATCC 25922. It is filed as cell-based. The conditions noted are these: ATCC 25922, 24 h. On the procedure: as §1
The test system of the next assay is A. baumannii XDR CI 2675. It is filed as cell-based. The note with it: XDR CI 2675, 24 h. On the procedure: as §1
In another assay the test system is E. coli ML-35p. The assay is classed as cell-based. The note with it: 24 h. Here is the method:
as §1

The test system of assay [2] is E. coli ML-35p outer membrane. Put plainly: Outer membrane permeability assay with nitrocefin. It is filed as cell-based. The conditions noted are these: PBS pH 7.4 with NaCl, 35 °C, absorbance 492 nm, three independent experiments. Here is the method: (§2) The ability of the peptides to disrupt the integrity of bacterial membranes was assessed using chromogenic substrates that are unable to enter the intact cell. For these assays, E. coli strain ML-35p was chosen that constitutively expresses β-lactamase (secreted into the periplasmic space), β-galactosidase (that is active in cytoplasm), and lacks lactose permease. Nitrocefin, which is a substrate for lactamase, served as an indicator of increased outer membrane permeability. o-Nitrophenyl-β-D-galactopyranoside (ONPG), a substrate for […], was used to assess the integrity of the cytoplasmic membrane. The bacterial cultures were grown to stationary phase in 3% TSB medium at 37 °C overnight. The cells were washed three times with cold 10 mM phosphate-buffered saline (PBS), pH 7.4 ([…], 2.7 mM KCl, 10 mM Na2HPO4, 1.76 mM KH2PO4), and diluted to the concentration of 3.3 × 10^7 CFU/mL with 10 mM PBS (pH 7.4), containing increased concentration of NaCl (1.2%, or 205 mM) and dissolved nitrocefin (Merck-Millipore, Burlington, MA, USA) or ONPG (AppliChem GmbH, Darmstadt, Germany). […] The plate was incubated at 35 °C, 500 rpm, and the absorbance of the hydrolysis products of ONPG or nitrocefin was measured spectrophotometrically at regular intervals at 405 nm or 492 nm, respectively, using AF2200 microplate reader (Eppendorf, Hamburg, Germany). […]

A further assay relates to L. lactis MK43. Kind of assay: Antibacterial activity assay (MIC), two-fold serial dilutions in liquid medium. The assay is classed as cell-based. The conditions noted are these: for Minimum Inhibitory Concentration: MHB, 0.1% BSA, 37 °C, 24 h, no visible growth; for Minimum inhibitory concentration in the presence of NaCl: MHB supplemented with 0.9% NaCl. Here is the method:
as §1

A further assay concerns L. monocytogenes EGD. It is filed as cell-based, Listeria monocytogenes. The conditions noted are these: 24 h. Here is the method:
as §1

The test system of assay [3] is E. coli ML-35p cytoplasmic membrane. Kind of assay: Cytoplasmic membrane permeability assay with ONPG. The assay is classed as cell-based. The conditions noted are these: PBS pH 7.4 with NaCl, 35 °C, absorbance 405 nm, three independent experiments. On the procedure: as §2
Another assay concerns tested bacterial strains. Kind of assay: Antibacterial activity assay (MIC), average change over the tested strains. It is filed as cell-based. Here is the method: as §1, with “As a negative control, 50 µL of the sterile growth medium (2xMHB or 6% TSB) was added to the wells containing 50 µL of 0.1% BSA.” left out, “Incubation for 2 h with 20 µg/mL chromogenic substrate resazurin (Sigma-Aldrich, St. Louis, MO, USA) was used to detect viable bacterial cells if they were difficult to visually detect. To study the effect of inorganic salts on the antimicrobial activity of bacteriocins, antibacterial activity assay was carried out in MHB medium supplemented with 0.9% NaCl.” left out

Positions of bridges follow the written chain, without caps; N, C: chain ends. No end group written: not given here. Some results are limits rather than exact numbers.

As for “KTYYGTNGVHCTKNSLWGKVRLKNVKYDQNTTYIGRLQDILLGWATGAFGKTFH [OR-7(VI)]”, the “Minimum Inhibitory Concentration” value in [1] is on record as above 32 µM; in the assay on E. coli SQ110 it was above 64 µM; in the assay with L. lactis MK66 it was 4 µM; with M. luteus Ac-2229 it was above 32 µM; with E. coli XDR CI 1057 it was above 64 µM; in the assay with B. licheniformis B-511, 8 µM. For the same sequence, the “Minimum Inhibitory Concentration” value in the assay on S. aureus 209P is on record as above 32 µM; in the assay with M. phlei Ac-1221, 32 µM; in the assay with B. subtilis B-886, 16 µM; in the assay on E. coli ATCC 25922, above 32 µM; in the assay on A. baumannii XDR CI 2675, above 32 µM; in the assay with E. coli ML-35p, above 32 µM. Also, the entries for the “Minimum Inhibitory Concentration” value in the assay on L. lactis MK43 and with L. monocytogenes EGD were above 32 µM and above 64 µM, respectively. Besides, the “Minimum inhibitory concentration in the presence of NaCl” value in the assay on L. lactis MK66, in the assay on B. licheniformis B-511 and with B. subtilis B-886 was above 32 µM each time. Moreover, in assay [2], the “Effect on outer membrane integrity (nitrocefin hydrolysis kinetics)” value is on record as “reduced”.
Consider “TYYGTNGVSCNKKGCSVDWGKAISIIGNNSAANLATGGAAGWKS (disulfide 10-15) [AviA(T)]”, for which the “Minimum Inhibitory Concentration” value (in assay [1]; in the assay on E. coli SQ110; with L. lactis MK66; in the assay on M. luteus Ac-2229; in the assay on E. coli XDR CI 1057; in the assay on B. licheniformis B-511) was above 32 µM each time. Further, the “Minimum Inhibitory Concentration” value in the assay with S. aureus 209P, in the assay with M. phlei Ac-1221, in the assay with B. subtilis B-886, with E. coli ATCC 25922, with A. baumannii XDR CI 2675 and in the assay on E. coli ML-35p was above 32 µM in each case. Moreover, the “Minimum Inhibitory Concentration” value in the assay on L. lactis MK43 and in the assay on L. monocytogenes EGD was above 32 µM each time. Moreover, in assay [2], the “Effect on outer membrane integrity (nitrocefin hydrolysis kinetics)” value is “with the exception of AviA(T), were able to disrupt its integrity”. For the same sequence, the “Effect on cytoplasmic membrane integrity (ONPG hydrolysis kinetics)” value in assay [3] was “melittin >> acidocin A ≈ pediocin box mutants > peptides without a disulfide bond > avicin A >> AviA(T)”.
In the case of “KTYYGNGVHCTKKSLWGKVRLKNVIPGTLSRKQSLPIKQDLKILLGWATGAFGKTFH [AcdA(dT,C31S)]”, the “Minimum Inhibitory Concentration” value in [1] was above 32 µM; with E. coli SQ110, 8 µM; with L. lactis MK66, 1 µM; with M. luteus Ac-2229, 16 µM; in the assay with E. coli XDR CI 1057, 16 µM; in the assay on B. licheniformis B-511 it was 4 µM. Moreover, the “Minimum Inhibitory Concentration” value was determined as 32 µM in the assay with S. aureus 209P; 4 µM in the assay on M. phlei Ac-1221; 4 µM with B. subtilis B-886; 8 µM in the assay with E. coli ATCC 25922; 16 µM in the assay on A. baumannii XDR CI 2675; 8 µM in the assay on E. coli ML-35p. Besides, the entries for the “Minimum Inhibitory Concentration” value in the assay on L. lactis MK43 and in the assay with L. monocytogenes EGD were 2 µM and above 32 µM, respectively. Besides, the “Minimum inhibitory concentration in the presence of NaCl” value with E. coli SQ110 is reported as 16 µM; in the assay with L. lactis MK66, above 32 µM; with B. licheniformis B-511, above 32 µM; with B. subtilis B-886, above 32 µM; with E. coli ML-35p, 32 µM; in the assay on L. lactis MK43, above 32 µM. In the assay on tested bacterial strains, the “Increase of MIC values on average compared to AcdA(dT) and acidocin A” value was 2–4 fold.
With “KTYYGNGVHSTKKSLWGKVRLKNVIPGTLCRKQSLPIKQDLKILLGWATGAFGKTFH [AcdA(dT,C11S)]”, the “Minimum Inhibitory Concentration” value is above 32 µM in assay [1]; 4 µM in the assay on E. coli SQ110; 1 µM with L. lactis MK66; 16 µM with M. luteus Ac-2229; 16 µM in the assay with E. coli XDR CI 1057; 4 µM in the assay with B. licheniformis B-511. Further, the “Minimum Inhibitory Concentration” value came out at 32 µM in the assay with S. aureus 209P; 4 µM with M. phlei Ac-1221; 4 µM in the assay on B. subtilis B-886; 8 µM with E. coli ATCC 25922; 8 µM in the assay with A. baumannii XDR CI 2675; 4 µM with E. coli ML-35p. Moreover, the “Minimum Inhibitory Concentration” value in the assay on L. lactis MK43 is reported as 4 µM; in the assay with L. monocytogenes EGD it was above 32 µM. For the same sequence, the “Minimum inhibitory concentration in the presence of NaCl” value in the assay with E. coli SQ110 is recorded as 16 µM; in the assay with L. lactis MK66, above 32 µM; in the assay on B. licheniformis B-511, above 32 µM; in the assay on B. subtilis B-886 it was above 32 µM; in the assay with E. coli ML-35p, 32 µM; in the assay on L. lactis MK43, above 32 µM. In the assay with tested bacterial strains, the “Increase of MIC values on average compared to AcdA(dT) and acidocin A” value is listed as 2–4 fold.
